From patent US20100317626A1, “The Use Of (3-Amino-2-Fluoropropyl) Phosphinic Acid For Treatment Of NERD” (ASTRAZENECA AB, priority 2007, published 2010)

What was measured:
[1] = system: transient lower esophageal sphincter relaxations (TLESRs); experiment: Clinical study: number of TLESRs after a standardised meal, single-blind randomised placebo-controlled; assay type: in vivo, healthy volunteers; conditions: for reduction of the number of transient lower esophageal sphincter relaxations (TLESRs) as compared to placebo: healthy volunteers, 0-3 hours after intake of a standardised meal completed 1 hour after drug intake
Description: A clinical study of (2R)-(3-Amino-2-fluoropropyl)phosphinic acid was performed. The study was a single-blind, randomised, parallel group, placebo-controlled study in healthy volunteers. Each subject was given 2 doses of (2R)-(3-Amino-2-fluoropropyl)phosphinic acid in escalating order and one placebo dose. A dose of (2R)-(3-Amino-2-fluoropropyl)phosphinic acid 0.8 mg/kg was compared to placebo and baclofen (40 mg) was used as a positive control. The order of treatments was randomised. The number of transient lower esophageal sphincter relaxations (TLESRs) 0-3 hours after intake of a standardised meal, (completed 1 hour after drug intake) were reduced by 36% and 47% for (2R)-(3-Amino-2-fluoropropyl)phosphinic acid and baclofen respectively, as compared to placebo (FIG. 1).

[2] = system: bile reflux and reflux symptoms; conditions: patients with persistent non-acid duodenogastroesophageal reflux; cited from earlier work
[3] = clinical study in healthy volunteers

| SMILES | inhibition of TLESRs (result in words) [1, 3] | tolerability [1, 3] | reduction of the number of transient lower esophageal sphincter relaxations (TLESRs) as compared to placebo ([1]; dose 0.8 mg/kg) [%] | reduction of the number of transient lower esophageal sphincter relaxations (TLESRs) as compared to placebo ([1]; baclofen 40 mg, positive control) [%] | effect on bile reflux and reflux symptoms [2] |
| --- | --- | --- | --- | --- | --- |
| NC[C@@H](F)C[PH](=O)O [(2R)-(3-Amino-2-fluoropropyl)phosphinic acid] | efficacious | well tolerated | 36 |  |  |
| NCC(CC(=O)O)c1ccc(Cl)cc1 (centres unmarked) [baclofen, reference compound] |  |  |  | 47 | inhibit the occurrence of bile reflux and reflux symptoms |
